Among the data in PubChem BioAssay (NCI) are TGI and GI50 values, retold here.

Test systems include A549 NSCLC; K-562 leukemia; M14 melanoma; MALME-3M melanoma; NCI-H23 lung; TK-10 renal; DU-145 prostate; MDA-MB-435; PC-3 prostate; T-47D breast.
What all share (test): NCI anticancer screen, dose series, 48 h

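Compound exposure: 48 hours, 5 concentrations, 96-well plates. GI50 marks 50% less growth. The concentration for full growth arrest is given as TGI.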 A value given as a limit tells only on which side of the number the result lay.

With `CC1(c2ccc[n+](Cc3ccccc3)c2)OCCO1`, the TGI with A549 NSCLC, in the assay with K-562 leukemia, in the assay with M14 melanoma, in the assay with MALME-3M melanoma, in the assay with NCI-H23 lung and in the assay on TK-10 renal was above 100 µM throughout.
As for `C[C@H]1C[C@H]2[C@@H]3C(C)(C)O[C@]4(O)C(=O)[C@]5(O)[C@@H](C)CC[C@H]1[C@]25C(=O)[C@]34C`, the TGI with A549 NSCLC is above 100 µM; with DU-145 prostate, above 100 µM; in the assay with K-562 leukemia, above 100 µM; in the assay on M14 melanoma it was above 100 µM; in the assay with MDA-MB-435 it was 96.3 µM; in the assay on NCI-H23 lung it was above 100 µM. Also, the figures for the TGI in the assay on PC-3 prostate and in the assay with T-47D breast were above 100 µM and 70.9 µM, respectively.
In the case of `COc1ccc(-n2c(=O)n(C)c(=O)n2-c2ccc(OC)cc2)cc1`, the TGI in the assay with A549 NSCLC, in the assay on DU-145 prostate, in the assay on K-562 leukemia, in the assay with M14 melanoma, with MDA-MB-435 and in the assay with NCI-H23 lung was above 100 µM throughout. In addition, the TGI in the assay with PC-3 prostate, in the assay on T-47D breast and with TK-10 renal was above 100 µM in each case.
`CCOP(=O)(OCC)C1CC(n2cc(C)c(=O)[nH]c2=O)OC1CO` (configuration not stated): the TGI in the assay with A549 NSCLC, with DU-145 prostate, in the assay on K-562 leukemia, in the assay on M14 melanoma, in the assay with MALME-3M melanoma and in the assay with NCI-H23 lung was above 100 µM each time. In addition, the TGI in the assay with PC-3 prostate, in the assay on T-47D breast and in the assay on TK-10 renal was above 100 µM throughout.
For `CC[N+]1(C)CCC(O)(c2ccc(Cl)c(Cl)c2)C(C(=O)c2ccc(Cl)c(Cl)c2)C1` (configuration not stated), the TGI with A549 NSCLC, with DU-145 prostate, with K-562 leukemia, in the assay with M14 melanoma, in the assay on MALME-3M melanoma and in the assay on NCI-H23 lung was above 10 µM throughout. Besides, the TGI with PC-3 prostate, in the assay with T-47D breast and with TK-10 renal was above 10 µM throughout.
For `NCCCN(CCCN)CCN(CCN(CCCN)CCCN)CCN(CCCN)CCCN`, the TGI in the assay with A549 NSCLC, in the assay on DU-145 prostate, with K-562 leukemia, in the assay with M14 melanoma, with MDA-MB-435 and in the assay on NCI-H23 lung was above 100 µM throughout. For the same compound, the TGI in the assay with PC-3 prostate, in the assay with T-47D breast and with TK-10 renal was above 100 µM each time.
Take `COc1ccc(-c2cc(-c3ccc(Nc4ccnc5cc(Cl)ccc45)cc3)[nH]c(=O)c2C#N)c2ccccc12`: the TGI is above 52.9 µM in the assay on A549 NSCLC; above 32.7 µM with DU-145 prostate; 6.35 µM in the assay on K-562 leukemia; 4.93 µM with M14 melanoma; 8.01 µM in the assay with MALME-3M melanoma; above 91.6 µM in the assay with NCI-H23 lung. The TGI was above 100 µM with PC-3 prostate and 29.7 µM in the assay on TK-10 renal.
For the compound `NNC(=O)Cn1c2ccc(Br)cc2c2nc3ccccc3nc21`, the TGI in the assay on A549 NSCLC, with DU-145 prostate, in the assay with K-562 leukemia, with M14 melanoma, in the assay on MDA-MB-435 and in the assay on NCI-H23 lung was above 100 µM throughout. Moreover, the TGI with PC-3 prostate, in the assay on T-47D breast and with TK-10 renal was above 100 µM throughout.
As to `CCOC(=O)C(NC(=O)CC)(Nc1cc(C)on1)C(F)(F)F` (configuration not stated), the TGI in the assay on A549 NSCLC, in the assay on K-562 leukemia, in the assay on M14 melanoma, with MDA-MB-435, in the assay with NCI-H23 lung and in the assay with PC-3 prostate was above 100 µM in each case. Moreover, the TGI in the assay on T-47D breast and in the assay with TK-10 renal was above 100 µM in each case.
For the compound `C(CCCCc1nnc(N2CCCCC2)o1)CCCc1nnc(N2CCCCC2)o1`, the TGI with A549 NSCLC, with DU-145 prostate, in the assay on K-562 leukemia, with M14 melanoma, in the assay on MALME-3M melanoma and in the assay with MDA-MB-435 was above 100 µM each time. In addition, the TGI in the assay with NCI-H23 lung, with PC-3 prostate and with TK-10 renal was above 100 µM each time.
Take `O=C(O)c1ccn(-c2cccc(-n3ccc(C(=O)O)n3)n2)n1`: the TGI in the assay with A549 NSCLC, in the assay on DU-145 prostate, in the assay on K-562 leukemia, in the assay on M14 melanoma, with MALME-3M melanoma and in the assay with MDA-MB-435 was above 100 µM in each case. For the same compound, the TGI with NCI-H23 lung, in the assay on PC-3 prostate and with TK-10 renal was above 100 µM each time.
Regarding `COc1cc(C(C)c2cc3c(cc2OCCO)OCO3)cc(OC)c1OC` (configuration not stated), the TGI in the assay on A549 NSCLC, with K-562 leukemia, in the assay on M14 melanoma, with MALME-3M melanoma and with TK-10 renal was above 100 µM throughout.
Turning to `COc1ccc(C(=O)/C=C/c2c(Cl)c3c(c(OC)c2Cl)OCC(=O)N3)cc1`, the GI50 in the assay with A549 NSCLC is 3.61 µM; with DU-145 prostate, 3.17 µM; with K-562 leukemia it was 1850 nM; in the assay on M14 melanoma, 2030 nM; with MALME-3M melanoma, 2280 nM; in the assay on NCI-H23 lung, 2230 nM. Also, the GI50 in the assay on TK-10 renal is 2550 nM. Further, the TGI with A549 NSCLC is above 100 µM; in the assay on DU-145 prostate, above 100 µM; in the assay on K-562 leukemia, 7.73 µM; in the assay with M14 melanoma it was 5.12 µM; with MALME-3M melanoma it was 4.99 µM; in the assay on NCI-H23 lung, 4.85 µM. The TGI in the assay on TK-10 renal turned out to be 6.09 µM.
On to `COc1cc2c(cc1OC)C(Cl)C(c1ccc(Cl)c(Cl)c1)=C2Cl` (configuration not stated), for which the TGI was above 100 µM in the assay with K-562 leukemia; 50.1 µM with M14 melanoma; 40.8 µM in the assay on MALME-3M melanoma; above 100 µM in the assay with NCI-H23 lung; 48.7 µM in the assay on TK-10 renal.
With `COc1ccc(-c2c(C#N)c(S)n(NS(=O)(=O)c3ccc(C)cc3)c(=O)c2C#N)cc1`, the TGI in the assay on A549 NSCLC is above 100 µM; with K-562 leukemia, 47.2 µM; with M14 melanoma it was 52.9 µM; in the assay on MALME-3M melanoma, above 100 µM; in the assay on PC-3 prostate, 67.5 µM; with TK-10 renal, above 100 µM.
Regarding `CCOC(=O)Cc1cc(OC)c(OC)cc1/C(Cl)=C(\C=O)c1ccc(OC)c(OC)c1`, the TGI is 57.1 µM with A549 NSCLC; 56.5 µM with K-562 leukemia; 32.1 µM in the assay with M14 melanoma; 74.3 µM in the assay on MALME-3M melanoma; 51.2 µM in the assay on NCI-H23 lung; 90.8 µM in the assay on TK-10 renal.
With `COc1ccc(C(=O)Cc2ccc(Br)cc2)cc1OC`, the TGI in the assay on A549 NSCLC, with K-562 leukemia, in the assay on M14 melanoma, in the assay on MALME-3M melanoma, in the assay with NCI-H23 lung and in the assay on TK-10 renal was above 100 µM each time.
As for `O=C(Cn1c(C(=O)/C=C/c2cccs2)nc2ccccc21)c1ccc(Cl)cc1`, the TGI was above 100 µM in the assay with A549 NSCLC; above 100 µM in the assay with DU-145 prostate; 45.7 µM in the assay with K-562 leukemia; 40.7 µM with M14 melanoma; 54.7 µM with MALME-3M melanoma; above 100 µM with MDA-MB-435. Moreover, the TGI in the assay with NCI-H23 lung was 36.8 µM; in the assay with T-47D breast, above 100 µM; in the assay with TK-10 renal, 89.5 µM.
Regarding `COc1cc2cc[n+]3c(C)c4cc(OC)c(OC)cc4c([O-])c3c2cc1OC`, the TGI is above 100 µM in the assay on A549 NSCLC; above 100 µM with K-562 leukemia; above 100 µM in the assay with M14 melanoma; 79.7 µM with MALME-3M melanoma; above 100 µM with NCI-H23 lung; above 100 µM in the assay with TK-10 renal.
`COc1c(O)cc(O)c2c(=O)cc(-c3ccccc3)oc12`: the TGI in the assay with A549 NSCLC is above 100 µM; with DU-145 prostate, 79.5 µM; in the assay on K-562 leukemia, above 100 µM; with M14 melanoma it was above 100 µM; in the assay with MALME-3M melanoma, above 100 µM; in the assay on MDA-MB-435 it was above 100 µM. Besides, the TGI in the assay on NCI-H23 lung, in the assay on PC-3 prostate and in the assay with TK-10 renal was above 100 µM each time.
`COc1ccc(C2N(NC(=O)c3ccncc3)C(=O)CS2(=O)=O)cc1F` (configuration not stated): the TGI in the assay with A549 NSCLC, with M14 melanoma, in the assay on MALME-3M melanoma, in the assay with NCI-H23 lung and with TK-10 renal was above 100 µM each time.
`CC1(C)[C@H]2CC[C@]1(C)[C@H](OC(=O)NNC(=O)O[C@@H]1C[C@@H]3CC[C@@]1(C)C3(C)C)C2`: the TGI with A549 NSCLC stood at 25.1 µM; with DU-145 prostate, 32.7 µM; in the assay on K-562 leukemia it was 17 µM; in the assay on M14 melanoma it was 35.6 µM; with MALME-3M melanoma, 33.8 µM; in the assay with MDA-MB-435, 64.4 µM. In addition, the TGI in the assay on NCI-H23 lung came out at 34.9 µM; with T-47D breast it was 23 µM; with TK-10 renal, 38.6 µM.
Regarding `O=C1C(=O)c2ccccc2C(O)=C1CCCc1ccc(Oc2ccccc2)cc1`, the TGI with K-562 leukemia is above 100 µM; with M14 melanoma, 24.5 µM; in the assay on MALME-3M melanoma, 75 µM; with NCI-H23 lung it was 19.1 µM; in the assay with TK-10 renal, above 100 µM.
For the compound `CC1(O)CC(=O)c2c(cc3ccc(-c4c5c(c(O)c6c(O)cccc46)C(=O)CC(C)(O)C5)c(O)c3c2O)C1` (configuration not stated), the TGI was 11.1 µM with A549 NSCLC; 3.43 µM in the assay on DU-145 prostate; 11.9 µM in the assay on K-562 leukemia; 7.11 µM in the assay with M14 melanoma; 1.61 µM with MALME-3M melanoma; 1.97 µM in the assay on MDA-MB-435. The TGI in the assay on NCI-H23 lung was determined as 1.35 µM; with PC-3 prostate it was 11.2 µM; in the assay on TK-10 renal, 10.3 µM.
